Experimental data as given in paper PMC12635456, “In Vivo Inhibition of Dipeptidyl Peptidase 4 and Neprilysin Activity Enables Measurement of GLP-1 Secretion in Male Rats” (Journal of the Endocrine Society, 2025).
Like-named read-outs stand apart in the source and are kept apart here.

Experiments:
[1] = cited from earlier work
Excerpt: Glucagon-like peptide-1 (GLP-1), secreted from enteroendocrine cells in the gut, enhances glucose-stimulated insulin secretion and reduces appetite.

GLP-1 secretion = experiment: Oral glucose challenge without inhibitor pretreatment (GLP-1 by RIA and ELISAs); conditions: oral glucose 2 g/kg, no inhibitors
Protocol: In these experiments it was possible to collect relatively large blood samples (∼500 µL), allowing measurements with a single site RIA directed at the C-terminus of the molecule. The samples were collected at time point 0, 15, 30, and 60 minutes after glucose challenge and treated as already described.
Net area under the curve (nAUC) was calculated using the trapezoid rule; baseline was set to the first data point and peaks above and below the baseline were considered. P < .05 was considered significant. Data are shown as mean ± SEM.

For CC[C@H](C)[C@H](NC(=O)[C@H](Cc1ccccc1)NC(=O)[C@H](CCC(=O)O)NC(=O)[C@H](CCCCN)NC(=O)[C@H](C)NC(=O)[C@H](C)NC(=O)[C@H](CCC(N)=O)NC(=O)CNC(=O)[C@H](CCC(=O)O)NC(=O)[C@H](CC(C)C)NC(=O)[C@H](Cc1ccc(O)cc1)NC(=O)[C@H](CO)NC(=O)[C@H](CO)NC(=O)[C@@H](NC(=O)[C@H](CC(=O)O)NC(=O)[C@H](CO)NC(=O)[C@@H](NC(=O)[C@H](Cc1ccccc1)NC(=O)[C@@H](NC(=O)CNC(=O)[C@H](CCC(=O)O)NC(=O)[C@H](C)NC(=O)[C@@H](N)Cc1c[nH]cn1)[C@@H](C)O)[C@@H](C)O)C(C)C)C(=O)N[C@@H](C)C(=O)N[C@@H](Cc1c[nH]c2ccccc12)C(=O)N[C@@H](CC(C)C)C(=O)N[C@H](C(=O)N[C@@H](CCCCN)C(=O)NCC(=O)N[C@@H](CCCNC(=N)N)C(N)=O)C(C)C [GLP-1(7-36)NH2], the “Half-life in the circulation” value ([1]; humans) is given as “a few minutes”, the “Half-life in the circulation” value ([1]; mice) is given as “a few minutes” and the “Half-life in the circulation” value ([1]; rats) is given as “a few minutes”.
For OC[C@H]1OC(O)[C@H](O)[C@@H](O)[C@@H]1O (some centres unmarked) [glucose], the “Increase in GLP-1 concentration 15 minutes following glucose, C-terminal RIA” value (GLP-1 secretion) was ~15 pmol/L, the “Increase in GLP-1 concentration 15 minutes following glucose, Mercodia total ELISA” value (GLP-1 secretion) was “around 5 pmol/L” and the “Total GLP-1 plasma concentration 15 minutes after glucose, RIA” value (GLP-1 secretion; in-house C-terminal RIA 89390, mean ± SEM, n = 5-6, P < .02 vs baseline) was 43.1 ± 3.7 pmol/L. For the same compound, the “Intact GLP-1 plasma concentration 15 minutes after glucose, Alpco ELISA” value (GLP-1 secretion; mean ± SEM, n = 5-6, P < .008 vs baseline) was 0.8 ± 0.07 pmol/L and the “Total GLP-1 plasma concentration 15 minutes after glucose, Mercodia ELISA” value (GLP-1 secretion; mean ± SEM, n = 5-6, P < .02 vs baseline) was 10.5 ± 1.8 pmol/L.
